Experimental data published in EP3789378A1, “PIPERIDINES OR PIPERIDONES SUBSTITUTED WITH UREA AND HETEROARYL” (Grünenthal GmbH, priority 2019, dated 2021).
pEC50: −log10 of the molar value.

Each molecule was assayed against T1, h FPR2 (Homo sapiens, UniProt P25090) (assay: Agonistic activity in hFPR2-Aq-CHO cells (FLIPR Calcium 5 fluorescence assay)). Conditions: 11 point half log dilution, final assay concentration from 10µM.
T1 construct: expressed in transfected cells
T1 sequence (P25090 1-351): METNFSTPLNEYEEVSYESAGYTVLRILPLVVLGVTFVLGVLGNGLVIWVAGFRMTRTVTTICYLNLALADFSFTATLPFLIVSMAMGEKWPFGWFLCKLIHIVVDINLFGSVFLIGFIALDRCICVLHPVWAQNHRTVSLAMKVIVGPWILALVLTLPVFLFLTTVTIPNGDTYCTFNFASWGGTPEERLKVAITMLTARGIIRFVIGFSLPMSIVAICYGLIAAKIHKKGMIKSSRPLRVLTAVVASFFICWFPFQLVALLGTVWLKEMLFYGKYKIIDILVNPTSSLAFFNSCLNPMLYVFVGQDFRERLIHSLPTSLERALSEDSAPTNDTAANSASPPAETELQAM
Format: cell-based
Summary of the method: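 hFPR2-Aq-CHO cells were loaded with Calcium 5 dye for 30 min at 37 °C and equilibrated 10 min at room temperature. Compound (11 points, 10 µM to 100 pM final) was added in HBSS/HEPES/probenecid buffer pH 7.4. Fluorescence rise over basal across 5 min, relative to no-compound wells, gave EC50.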

| SMILES | pEC50 |
| --- | --- |
| COc1cnc([C@@H]2CN(CCCN(C)C)CC[C@H]2NC(=O)Nc2ccc(Cl)cc2)c(F)c1 (relative stereo) [Ex-212, trans-1-(4-chloro-phenyl)-3-[1'-(3-dimethylamino-propyl)-3-fluoro-5-methoxy-1',2',3',4',5',6'-hexahydro-[2,3']bipyridinyl-4'-yl]-urea] | 9.52 |
| COc1cnc([C@@H]2CN(CCN(C)C)CC[C@H]2NC(=O)Nc2ccc(Cl)cc2)c(F)c1 (relative stereo) [Ex-213, trans-1-(4-chloro-phenyl)-3-[1'-(2-dimethylamino-ethyl)-3-fluoro-5-methoxy-1',2',3',4',5',6'-hexahydro-[2,3']bipyridinyl-4'-yl]-urea] | 8.98 |
| COc1ccc([C@@H]2CN(CC3(O)COC3)CC[C@H]2NC(=O)Nc2cc(C)ns2)nc1 (relative stereo) [Ex-217, trans-1-[1'-(3-hydroxy-oxetan-3-ylmethyl)-5-methoxy-1',2',3',4',5',6'-hexahydro-[2,3']bipyridinyl-4'-yl]-3-(3-methyl-isothiazol-5-yl)-urea] | 8.22 |
| COc1cnc([C@@H]2CN(C3COC3)CC[C@H]2NC(=O)Nc2ccc(Cl)cc2)c(F)c1 (relative stereo) [Ex-218, trans-1-(4-chloro-phenyl)-3-(3-fluoro-5-methoxy-1'-oxetan-3-yl-1',2',3',4',5',6'-hexahydro-[2,3']bipyridinyl-4'-yl)-urea] | 8.40 |
| COc1ccc([C@@H]2CN(C(C)(C)CO)CC[C@H]2NC(=O)Nc2ccc(Cl)cc2)nc1 (relative stereo) [Ex-219, trans-1-(4-chloro-phenyl)-3-[1'-(2-hydroxy-1,1-dimethyl-ethyl)-5-methoxy-1',2',3',4',5',6'-hexahydro-[2,3']bipyridinyl-4'-yl]-urea] | 7.42 |
| COc1ccc([C@@H]2CN(CC3(O)CCC3)CC[C@H]2NC(=O)Nc2ccc(Cl)cc2)nc1 (relative stereo) [Ex-220, trans-1-(4-chloro-phenyl)-3-[1'-(1-hydroxy-cyclobutylmethyl)-5-methoxy-1',2',3',4',5',6'-hexahydro-[2,3']bipyridinyl-4'-yl]-urea] | 9.40 |
| COc1cnc([C@@H]2CN(CC3CCC(O)CC3)CC[C@H]2NC(=O)Nc2ccc(Cl)cc2)c(F)c1 (relative stereo) [Ex-221, trans-1-(4-chloro-phenyl)-3-[3-fluoro-1'-(4-hydroxy-cyclohexylmethyl)-5-methoxy-1',2',3',4',5',6'-hexahydro-[2,3']bipyridinyl-4'-yl]-urea] | 9.05 |
| COc1cnc([C@@H]2CN(CC(N)=O)CC[C@H]2NC(=O)Nc2ccc(Cl)cc2)c(F)c1 (relative stereo) [Ex-222, trans-2-{4'-[3-(4-chlorophenyl)-ureido]-3-fluoro-5-methoxy-3',4',5',6'-tetrahydro-2'H-[2,3']bipyridinyl-1'-yl}-acetamide] | 9.52 |
| COc1cnc([C@@H]2CN(CC3CCC(OC)CC3)CC[C@H]2NC(=O)Nc2ccc(Cl)cc2)c(F)c1 (relative stereo) [Ex-223, trans-1-(4-Chloro-phenyl)-3-[3-fluoro-5-methoxy-1'-(4-methoxy-cyclohexylmethyl)-1',2',3',4',5',6'-hexahydro-[2,3']bipyridinyl-4'-yl]-urea] | 9.10 |
| COc1ccc([C@@H]2CN(c3cncc(C)n3)CC[C@H]2NC(=O)Nc2ccc(Cl)cc2)nc1 (relative stereo) [Ex-224, trans-1-(4-chloro-phenyl)-3-[5-methoxy-1'-(6-methyl-pyrazin-2-yl)-1',2',3',4',5',6'-hexahydro-[2,3']bipyridinyl-4'-yl]-urea] | 8.30 |
| COc1ccc([C@@H]2CN(c3cnccn3)CC[C@H]2NC(=O)Nc2ccc(Cl)cc2)nc1 (relative stereo) [Ex-226, trans-1-(4-chloro-phenyl)-3-(5-methoxy-1'-pyrazin-2-yl-1',2',3',4',5',6'-hexahydro-[2,3']bipyridinyl-4'-yl)-urea] | 9.05 |
| O=C(Nc1ccc(Cl)cc1)NC1CC(=O)N(c2ccc(F)cc2)CC1c1ccc(Cl)cn1 (single isomer, unassigned) [Ex-15, 1-(4-chlorophenyl)-3-[5-(5-chloropyridin-2-yl)-1-(4-fluorophenyl)-2-oxopiperidin-4-yl]urea] | 8.15 |
| Cc1cc(NC(=O)N[C@@H]2CCN(c3ccncn3)C[C@H]2c2ccc(Cl)cn2)sn1 (single isomer, unassigned) [Ex-16, trans-1-(5-chloro-1'-pyrimidin-4-yl-1',2',3',4',5',6'-hexahydro-[2,3']bipyridinyl-4'-yl)-3-(3-methyl-isothiazol-5-yl)-urea] | 9.05 |
| Cc1cc(CN2CC[C@@H](NC(=O)Nc3ccc(Cl)cc3)[C@H](c3ccc(Cl)cn3)C2)no1 (single isomer, unassigned) [Ex-22, trans-1-(4-chlorophenyl)-3-[3-(5-chloropyridin-2-yl)-1-[(5-methyl-1,2-oxazol-3-yl)methyl]piperidin-4-yl]urea] | 9.70 |
| COc1ccc([C@@H]2CN(Cc3cc(C)on3)CC[C@H]2NC(=O)Nc2ccc(Cl)cc2)nc1 (single isomer, unassigned) [Ex-29, trans-1-(4-chlorophenyl)-3-[3-(5-methoxypyridin-2-yl)-1-[(5-methyl-1,2-oxazol-3-yl)methyl]piperidin-4-yl]urea] | 7.96 |
| COc1ccc([C@@H]2CN(Cc3cc(C)on3)CC[C@H]2NC(=O)Nc2ccc(Cl)cc2)nc1 (single isomer, unassigned) [Ex-30, trans-1-(4-chlorophenyl)-3-[3-(5-methoxypyridin-2-yl)-1-[(5-methyl-1,2-oxazol-3-yl)methyl]piperidin-4-yl]urea] | 10.05 |
| COc1ccc([C@@H]2CN(CC(F)F)CC[C@H]2NC(=O)Nc2ccc(Cl)cc2)nc1 (single isomer, unassigned) [Ex-35, trans-1-(4-chlorophenyl)-3-[1-(2,2-difluoroethyl)-3-(5-methoxypyridin-2-yl)piperidin-4-yl]urea] | 10.22 |
| COc1ccc([C@@H]2CN(CC(F)F)CC[C@H]2NC(=O)Nc2ccc(Cl)cc2)nc1 (single isomer, unassigned) [Ex-36, trans-1-(4-chlorophenyl)-3-[1-(2,2-difluoroethyl)-3-(5-methoxypyridin-2-yl)piperidin-4-yl]urea] | 7.07 |
| COc1ccc([C@@H]2CN(Cc3cc(C(F)(F)F)on3)CC[C@H]2NC(=O)Nc2ccc(Cl)cc2)nc1 (single isomer, unassigned) [Ex-37, trans-1-(4-chlorophenyl)-3-[3-(5-methoxypyridin-2-yl)-1-{[5-(trifluoromethyl)-1,2-oxazol-3-yl]methyl}piperidin-4-yl]urea] | 9.89 |
| COc1ccc([C@@H]2CN(Cc3cc(C(F)(F)F)on3)CC[C@H]2NC(=O)Nc2ccc(Cl)cc2)nc1 (single isomer, unassigned) [Ex-38, trans-1-(4-chlorophenyl)-3-[3-(5-methoxypyridin-2-yl)-1-{[5-(trifluoromethyl)-1,2-oxazol-3-yl]methyl}piperidin-4-yl]urea] | 7.27 |
| COc1ccc([C@@H]2CN(Cc3ccn(C)n3)CC[C@H]2NC(=O)Nc2ccc(Cl)cc2)nc1 (single isomer, unassigned) [Ex-39, trans-1-(4-chlorophenyl)-3-[3-(5-methoxypyridin-2-yl)-1-[(1-methyl-1H-pyrazol-3-yl)methyl]piperidin-4-yl]urea] | 9.52 |
| COc1ccc([C@@H]2CN(Cc3ccn(S(C)(=O)=O)n3)CC[C@H]2NC(=O)Nc2ccc(Cl)cc2)nc1 (single isomer, unassigned) [Ex-42, trans-1-(4-chlorophenyl)-3-[1-[(1-methanesulfonyl-1H-pyrazol-3-yl)methyl]-3-(5-methoxypyridin-2-yl)piperidin-4-yl]urea] | 9.00 |
| COc1ccc([C@@H]2CN(Cc3ccn(S(C)(=O)=O)n3)CC[C@H]2NC(=O)Nc2ccc(Cl)cc2)nc1 (single isomer, unassigned) [Ex-43, trans-1-(4-chlorophenyl)-3-[1-[(1-methanesulfonyl-1H-pyrazol-3-yl)methyl]-3-(5-methoxypyridin-2-yl)piperidin-4-yl]urea] | 10.52 |
| Cc1cc(CN2CC[C@@H](NC(=O)Nc3ccc(Cl)cc3)[C@H](c3ccc(Cl)s3)C2)no1 (single isomer, unassigned) [Ex-44, trans-1-(4-chlorophenyl)-3-[3-(5-chlorothiophen-2-yl)-1-[(5-methyl-1,2-oxazol-3-yl)methyl]piperidin-4-yl]urea] | 9.00 |
| O=C(Nc1ccc(Cl)cc1)N[C@@H]1CCN(Cc2ncccn2)C[C@H]1c1ccc(Cl)s1 (single isomer, unassigned) [Ex-46, trans-1-(4-chlorophenyl)-3-[3-(5-chlorothiophen-2-yl)-1-(pyrimidin-2-ylmethyl)piperidin-4-yl]urea] | 9.40 |
| O=C(Nc1ccc(Cl)cc1)N[C@@H]1CCN(Cc2ncccn2)C[C@H]1c1ccc(Cl)s1 (single isomer, unassigned) [Ex-47, trans-1-(4-chlorophenyl)-3-[3-(5-chlorothiophen-2-yl)-1-(pyrimidin-2-ylmethyl)piperidin-4-yl]urea] | 7.19 |
| Cc1cc(NC(=O)N[C@@H]2CCN(Cc3cc(C)on3)C[C@H]2c2ccc(Cl)s2)sn1 (single isomer, unassigned) [Ex-48, trans-1-[3-(5-chlorothiophen-2-yl)-1-[(5-methyl-1,2-oxazol-3-yl)methyl]piperidin-4-yl]-3-(3-methyl-1,2-thiazol-5-yl)urea] | 7.14 |
